Results on eleven compounds are retold here after patent US20240409585A1, “MACROCYCLIC IMMUNOMODULATORS” (priority 2021, published 2024).

Bridge positions count the residues as written; N and C are the ends. Square brackets hold non-standard residues; d marks the D form. Peptide text beside a SMILES is read from it. * marks the point of attachment. ξ: configuration not given here. Trp(5-CN) = N#Cc1ccc2[nH]cc(C[C@H](N)C(=O)O)c2c1; Phe(4-COOH) = N[C@@H](Cc1ccc(C(=O)O)cc1)C(=O)O; Bip = N[C@@H](Cc1ccc(-c2ccccc2)cc1)C(=O)O; Phe(3-Me) = Cc1cccc(C[C@H](N)C(=O)O)c1; 3Pal = N[C@@H](Cc1cccnc1)C(=O)O; 4Pal = N[C@@H](Cc1ccncc1)C(=O)O; Cha = N[C@@H](CC1CCCCC1)C(=O)O; Cit = NC(=O)NCCC[C@H](N)C(=O)O; Ile(3ξ) = CCC(C)[C@H](N)C(=O)O; Thr(3ξ) = CC(O)[C@H](N)C(=O)O; Carboxymethyl = O=C(O)C*; NMeA = CN[C@@H](C)C(=O)O; Dab = NCC[C@H](N)C(=O)O; Dap = NC[C@H](N)C(=O)O

T1 sequence (Q15116 25-288): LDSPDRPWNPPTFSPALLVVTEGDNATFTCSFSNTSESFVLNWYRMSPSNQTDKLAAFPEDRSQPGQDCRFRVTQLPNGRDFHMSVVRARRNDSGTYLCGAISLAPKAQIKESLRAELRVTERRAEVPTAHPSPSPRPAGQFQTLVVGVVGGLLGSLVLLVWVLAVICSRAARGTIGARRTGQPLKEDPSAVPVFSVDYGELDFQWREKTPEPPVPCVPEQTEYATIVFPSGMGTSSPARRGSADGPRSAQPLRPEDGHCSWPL

This assay concerns the target T1, PE-labeled human PD-L1-Ig binding to Jurkat cell line over-expressing human PD-1 (Jurkat-PD-1) (Homo sapiens, UniProt Q15116).
T1 construct: expressed in transfected cells; host or cells: Jurkat
Nature of the assay: Jurkat-PD-1 Cell Binding High-Content Screening Assay (CBA): Method 1. Particulars: Jurkat-hPD-1 cells, PE-labeled PD-L1-Ig 20 nM final; read-out: Jurkat HPDL1 PD1 IC50 (uM) (Method 1).
Turning to `Cc1cccc(C[C@@H]2NC(=O)[C@H](CC(=O)O)NC(=O)[C@H](Cc3ccc(OCC(=O)O)cc3)NC(=O)[C@H](Cc3ccncc3)NC(=O)CSC[C@@H](C(=O)N[C@@H](CCN)C(N)=O)NC(=O)[C@H](CCC(=O)O)NC(=O)[C@H](C(C)C)NC(=O)[C@H](CC3CCCCC3)NC(=O)[C@H](CCN)NC(=O)[C@@H](CC(C)C)NC(=O)[C@H](C)N(C)C(=O)[C@H](Cc3ccc(OCC(=O)O)cc3)NC(=O)[C@H](Cc3ccc(-c4ccccc4)cc3)NC(=O)[C@H](Cc3ccc(C(=O)O)cc3)NC2=O)c1` [Compound 2193] ({CH2CO}-[4Pal]Y(Carboxymethyl)D[Phe(3-Me)][Phe(4-COOH)][Bip]Y(Carboxymethyl)[NMeA][dL][Dab][Cha]VEC[Dab]-NH2; thioether N-14), the IC50 (commonly the concentration that gives 50% inhibition) was 0.01 µM.
The result for `CCC(C)[C@@H]1NC(=O)[C@H](Cc2ccc(-c3ccccc3)cc2)NC(=O)[C@H](C(C)C)NC(=O)[C@H](Cc2c[nH]c3ccccc23)NC(=O)[C@H](CC(=O)O)NC(=O)[C@H](Cc2ccc(O)cc2)NC(=O)[C@H](Cc2ccncc2)NC(=O)CSC[C@@H](C(=O)N[C@@H](CN)C(N)=O)NC(=O)[C@H](C(C)O)NC(=O)[C@H](C(C)C)NC(=O)[C@H](CC2CCCCC2)NC(=O)[C@H](CC(N)=O)NC(=O)[C@@H](CC(C)C)NC(=O)[C@H](C)N(C)C1=O` (stereo partly drawn) [Compound 2157] ({CH2CO}-[4Pal]YDWV[Bip][Ile(3ξ)][NMeA][dL]N[Cha]V[Thr(3ξ)]C[Dap]-NH2; thioether N-14) reads 0.04 µM; that for `CC(C)C[C@@H]1NC(=O)[C@H](CCN)NC(=O)[C@@H](CC(C)C)NC(=O)[C@H](C)N(C)C(=O)[C@H](CCCNC(=N)N)NC(=O)[C@H](Cc2ccc(-c3ccccc3)cc2)NC(=O)[C@H](C(C)C)NC(=O)[C@H](Cc2c[nH]c3ccccc23)NC(=O)[C@H](CC(=O)O)NC(=O)[C@H](Cc2ccncc2)NC(=O)[C@H](Cc2cccnc2)NC(=O)CSC[C@@H](C(=O)N[C@@H](C)C(N)=O)NC(=O)[C@H]([C@@H](C)O)NC(=O)[C@H](C(C)C)NC1=O` [Compound 1147] ({CH2CO}-[3Pal][4Pal]DWV[Bip]R[NMeA][dL][Dab]LVTCA-NH2; thioether N-14), 0.02 µM.
The result for `Cc1cccc(C[C@@H]2NC(=O)[C@H](CC(=O)O)NC(=O)[C@H](Cc3ccc(C(=O)O)cc3)NC(=O)[C@H](Cc3ccc(OCC(=O)O)cc3)NC(=O)CSC[C@@H](C(=O)N[C@@H](CCC(=O)O)C(N)=O)NC(=O)[C@H](CO)NC(=O)[C@H](C(C)C)NC(=O)[C@H](CC(C)C)NC(=O)[C@H](CC(N)=O)NC(=O)[C@@H](CC(C)C)NC(=O)[C@H](C)N(C)C(=O)[C@H](C(C)C)NC(=O)[C@H](Cc3ccc(-c4ccccc4)cc3)NC(=O)[C@H](CC(C)C)NC2=O)c1` [Compound 1604] ({CH2CO}-Y(Carboxymethyl)[Phe(4-COOH)]D[Phe(3-Me)]L[Bip]V[NMeA][dL]NLVSCE-NH2; thioether N-14) reads 0.01 µM; that for `CC(C)C[C@@H]1NC(=O)[C@H](Cc2c[nH]c3ccccc23)NC(=O)[C@H](CC(=O)O)NC(=O)[C@H](Cc2ccc(OCC(=O)O)cc2)NC(=O)[C@H](Cc2ccncc2)NC(=O)CSC[C@@H](C(=O)N[C@@H](C)C(N)=O)NC(=O)[C@H](CO)NC(=O)[C@H](C(C)C)NC(=O)[C@H](CC(C)C)NC(=O)[C@H](CC(N)=O)NC(=O)[C@@H](CC(C)C)NC(=O)[C@H](C)N(C)C(=O)[C@H](C(C)C)NC(=O)[C@H](Cc2ccc(-c3ccccc3)cc2)NC1=O` [Compound 1592] ({CH2CO}-[4Pal]Y(Carboxymethyl)DWL[Bip]V[NMeA][dL]NLVSCA-NH2; thioether N-14), 0.01 µM; that for `CC(C)C[C@@H]1NC(=O)[C@H](CCN)NC(=O)[C@@H](CC(C)C)NC(=O)[C@H](C)N(C)C(=O)[C@H](CCCNC(N)=O)NC(=O)[C@H](Cc2ccc(-c3ccccc3)cc2)NC(=O)[C@H](C(C)C)NC(=O)[C@H](Cc2c[nH]c3ccccc23)NC(=O)[C@H](CC(=O)O)NC(=O)[C@H](Cc2ccc(O)cc2)NC(=O)[C@H](Cc2cnc[nH]2)NC(=O)CSC[C@@H](C(=O)N[C@@H](C)C(N)=O)NC(=O)[C@H]([C@@H](C)O)NC(=O)[C@H](C(C)C)NC1=O` [Compound 1356] ({CH2CO}-HYDWV[Bip][Cit][NMeA][dL][Dab]LVTCA-NH2; thioether N-14), 0.02 µM.
Consider `CC(C)C[C@@H]1NC(=O)[C@H](CCN)NC(=O)[C@@H](CC(C)C)NC(=O)[C@H](C)N(C)C(=O)[C@H](CCCNC(=N)N)NC(=O)[C@H](Cc2ccc(-c3ccccc3)cc2)NC(=O)[C@H](C(C)C)NC(=O)[C@H](Cc2c[nH]c3ccc(C#N)cc23)NC(=O)[C@H](CC(=O)O)NC(=O)[C@H](Cc2ccc(O)cc2)NC(=O)[C@H](Cc2ccccc2)NC(=O)CSC[C@@H](C(=O)N[C@@H](C)C(N)=O)NC(=O)[C@H]([C@@H](C)O)NC(=O)[C@H](C(C)C)NC1=O` [Compound 1203] ({CH2CO}-FYD[Trp(5-CN)]V[Bip]R[NMeA][dL][Dab]LVTCA-NH2; thioether N-14), for which the IC50 came to 0.1 µM.
As for `CCC(C)[C@@H]1NC(=O)[C@H](Cc2ccc(-c3ccccc3)cc2)NC(=O)[C@H](C(C)C)NC(=O)[C@H](Cc2c[nH]c3ccccc23)NC(=O)[C@H](CC(=O)O)NC(=O)[C@H](Cc2ccc(O)cc2)NC(=O)[C@H](CC(N)=O)NC(=O)CSC[C@@H](C(=O)N[C@@H](C)C(N)=O)NC(=O)[C@H](CO)NC(=O)[C@H](C(C)C)NC(=O)[C@H](CC(C)C)NC(=O)[C@H](CCN)NC(=O)[C@@H](CC(C)C)NC(=O)[C@H](C)N(C)C1=O` (stereo partly drawn) [Compound 2070] ({CH2CO}-NYDWV[Bip][Ile(3ξ)][NMeA][dL][Dab]LVSCA-NH2; thioether N-14), the figure is 0.05 µM; as for `Cc1cccc(C[C@@H]2NC(=O)[C@H](CC(=O)O)NC(=O)[C@H](Cc3ccc(C(=O)O)cc3)NC(=O)[C@H](Cc3ccc(OCC(=O)O)cc3)NC(=O)CSC[C@@H](C(N)=O)NC(=O)[C@H](CO)NC(=O)[C@H](C(C)C)NC(=O)[C@H](CC(C)C)NC(=O)[C@H](CC(N)=O)NC(=O)[C@@H](CC(C)C)NC(=O)[C@H](C)N(C)C(=O)[C@H](C(C)C)NC(=O)[C@H](Cc3ccc(-c4ccccc4)cc3)NC(=O)[C@H](CC(C)C)NC2=O)c1` [Compound 1596] ({CH2CO}-Y(Carboxymethyl)[Phe(4-COOH)]D[Phe(3-Me)]L[Bip]V[NMeA][dL]NLVSC-NH2; thioether N-14), 0.02 µM; as for `CCC(C)[C@@H]1NC(=O)[C@H](Cc2ccc(-c3ccccc3)cc2)NC(=O)[C@H](C(C)C)NC(=O)[C@H](Cc2cccc(C)c2)NC(=O)[C@H](CC(=O)O)NC(=O)[C@H](Cc2ccc(OCC(=O)O)cc2)NC(=O)[C@H](Cc2ccncc2)NC(=O)CSC[C@@H](C(=O)N[C@@H](CO)C(=O)O)NC(=O)[C@H](CO)NC(=O)[C@H](C(C)C)NC(=O)[C@H](CC2CCCCC2)NC(=O)[C@H](CCN)NC(=O)[C@@H](CC(C)C)NC(=O)[C@H](C)N(C)C1=O` (stereo partly drawn) [Compound 2236] ({CH2CO}-[4Pal]Y(Carboxymethyl)D[Phe(3-Me)]V[Bip][Ile(3ξ)][NMeA][dL][Dab][Cha]VSCS-OH; thioether N-14), 0.31 µM.
The result for `CC(C)C[C@@H]1NC(=O)[C@H](CCN)NC(=O)[C@@H](CC(C)C)NC(=O)[C@H](C)N(C)C(=O)[C@H](CCCNC(=N)N)NC(=O)[C@H](Cc2ccc(-c3ccccc3)cc2)NC(=O)[C@H](C(C)C)NC(=O)[C@H](Cc2c[nH]c3ccccc23)NC(=O)[C@H](CC(=O)O)NC(=O)[C@H](Cc2ccc(C(=O)O)cc2)NC(=O)[C@H](CC(N)=O)NC(=O)CSC[C@@H](C(=O)N[C@@H](C)C(N)=O)NC(=O)[C@H]([C@@H](C)O)NC(=O)[C@H](C(C)C)NC1=O` [Compound 1452] ({CH2CO}-N[Phe(4-COOH)]DWV[Bip]R[NMeA][dL][Dab]LVTCA-NH2; thioether N-14) reads 0.04 µM.
